Data reported in patent publication US11497751B2, “Modulators of Rho-associated protein kinase” (Redx Pharma PLC, priority 2018, dated 2022).

molecular target: T1, N-terminal 6His-tagged ROCK2 catalytic domain 11-552 (Homo sapiens, UniProt O75116); assay: ROCK2 binding activity: ROCK2 inhibition, ADP-Glo Kinase Assay; type: biochemical; conditions: 1.25 nM ROCK2, 100 μM long S6 peptide, 20 μM ATP; 1 hour pre-incubation; read-out: ADP-Glo kinase activity assay ROCK2 Category
T1 construct: N-terminal 6His-tagged ROCK2 catalytic domain 11-552; 6His (N); purchased Dundee University, UK; host or cells: baculovirus expression system
T1 sequence (O75116 11-552): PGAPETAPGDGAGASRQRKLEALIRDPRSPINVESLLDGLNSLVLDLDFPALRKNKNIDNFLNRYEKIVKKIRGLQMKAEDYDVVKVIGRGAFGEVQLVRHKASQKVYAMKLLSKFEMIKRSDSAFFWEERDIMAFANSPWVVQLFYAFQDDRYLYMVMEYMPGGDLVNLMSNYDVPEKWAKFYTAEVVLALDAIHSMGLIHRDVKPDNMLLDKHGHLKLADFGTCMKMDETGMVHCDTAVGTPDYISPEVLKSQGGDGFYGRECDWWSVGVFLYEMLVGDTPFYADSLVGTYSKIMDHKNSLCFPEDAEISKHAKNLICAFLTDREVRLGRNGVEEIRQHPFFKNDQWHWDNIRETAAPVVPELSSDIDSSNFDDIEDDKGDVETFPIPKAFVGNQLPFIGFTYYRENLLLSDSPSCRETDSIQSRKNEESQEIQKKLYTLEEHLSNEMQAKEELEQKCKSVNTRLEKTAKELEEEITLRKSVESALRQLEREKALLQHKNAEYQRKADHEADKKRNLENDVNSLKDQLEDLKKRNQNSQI
Method in brief: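 1.25 nM baculovirus-expressed ROCK2 pre-incubated 1 h with compound (1% DMSO), then 100 μM long S6 peptide and 20 μM ATP added for 1 h; 50 mM HEPES pH 7.5, 10 mM Mg acetate, 1 mM DTT. ADP-Glo luminescence; IC50 from four-parameter logistic fit.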

SMILES	IC50 [nM]
CCNC1(COc2ccc(-c3nnc(Nc4ccc5[nH]ncc5c4)[nH]3)cc2)COC1 [Example 229, N-[5-[4-[[3-(ethylamino)oxetan-3-yl]methoxy]phenyl]-4H-1,2,4-triazol-3-yl]-1H-indazol-5-amine]	300 to 3000
COc1cc(-c2nc(Nc3ccc4[nH]ncc4c3)nn2C)ccc1OCC(=O)NC(C)C [Example 232, 2-[4-[5-(1H-indazol-5-ylamino)-2-methyl-1,2,4-triazol-3-yl]-2-methoxy-phenoxy]-N-isopropyl-acetamide]	300 to 3000
COc1cc(-c2nc(Nc3ccc4[nH]nc(C)c4c3)n(C)n2)ccc1OCC(=O)NC(C)C [Example 233, N-isopropyl-2-[2-methoxy-4-[1-methyl-5-[(3-methyl-1H-indazol-5-yl)amino]-1,2,4-triazol-3-yl]phenoxy]acetamide]	< 300
COc1cc(-c2nc(Nc3ccc4[nH]ncc4c3)n(C)n2)ccc1C(=O)NCC(F)(F)F [Example 240, 4-[5-(1H-indazol-5-ylamino)-1-methyl-1,2,4-triazol-3-yl]-2-methoxy-N-(2,2,2-trifluoroethyl)benzamide]	< 300
COCCNC(=O)COc1ccc(-c2nc(Nc3ccc4[nH]ncc4c3Cl)n(C)n2)cc1OC [Example 242, 2-[4-[5-[(4-chloro-1H-indazol-5-yl)amino]-1-methyl-1,2,4-triazol-3-yl]-2-methoxy-phenoxy]-N-(2-methoxyethyl)acetamide]	< 300
CCNC(=O)c1ccc(-c2nc(Nc3ccc4[nH]ncc4c3Cl)n(C)n2)cc1 [Example 253]	< 300
Cn1nc(-c2ccc(C(=O)NC3(C)CC3)c(Cl)c2)nc1Nc1ccc2[nH]ncc2c1Cl [Example 255]	300 to 3000
Cn1nc(-c2ccc(C(=O)NC(C)(C)C)c(Cl)c2)nc1Nc1ccc2[nH]ncc2c1Cl [Example 256]	< 300
Cn1nc(-c2ccc(C(=O)NC(C)(C)C)cc2)nc1Nc1ccc2[nH]ncc2c1Cl [Example 257]	< 300
CN1CC(NC(=O)c2ccc(-c3nc(Nc4ccc5[nH]ncc5c4Cl)n(C)n3)cc2Cl)C1 [Example 259]	3000 to 10000
Cn1nc(-c2ccc(C(=O)Nc3ccccc3)cc2)nc1Nc1ccc2[nH]ncc2c1Cl [Example 261]	< 300
CCNC(=O)c1ccc(-c2nc(Nc3ccc4[nH]ncc4c3Cl)n(C)n2)c(C)c1 [Example 262]	< 300
CN1CC(NC(=O)c2ccc(-c3nc(Nc4ccc5[nH]ncc5c4Cl)n(C)n3)cc2)C1 [Example 263]	300 to 3000
COc1cc(-c2nc(Nc3ccc4[nH]ncc4c3Cl)n(C)n2)ccc1C(=O)NC1CN(C)C1 [Example 267]	< 300
Cn1nc(-c2cccc(C(=O)NC3CC3)c2)nc1Nc1ccc2[nH]ncc2c1Cl [Example 269]	< 300
CC(C)NC(=O)c1cccc(-c2nc(Nc3ccc4[nH]ncc4c3Cl)n(C)n2)c1 [Example 270]	< 300
CCNC(=O)c1ccc(-c2nc(Nc3ccc4[nH]ncc4c3C3CC3)n(C)n2)cc1OC [Example 272]	< 300
COc1cc(-c2nc(Nc3ccc4[nH]ncc4c3C3CC3)n(C)n2)ccc1OCC(=O)NC(C)C [Example 274]	< 300
CCNC(=O)c1ccc(-c2nc(Nc3ccc4[nH]ncc4c3C3CC3)n(C)n2)cc1C [Example 277]	< 300
CCNC(=O)c1ccc(-c2nc(Nc3ccc4[nH]ncc4c3C3CC3)n(C)n2)c(OC)c1 [Example 279]	< 300
Cn1nc(-c2ccc(C(=O)NC3(C(F)(F)F)CC3)cc2)nc1Nc1ccc2[nH]ncc2c1C1CC1 [Example 281]	< 300
Cn1nc(-c2ccc(C(=O)NCC(F)(F)CO)cc2)nc1Nc1ccc2[nH]ncc2c1C1CC1 [Example 284]	< 300
Cn1nc(-c2ccc(C(=O)NCC(C)(C)O)cc2)nc1Nc1ccc2[nH]ncc2c1C1CC1 [Example 286]	< 300
Cn1nc(-c2ccc(C(=O)NCC(C)(C)N)cc2)nc1Nc1ccc2[nH]ncc2c1C1CC1 [Example 291]	3000 to 10000

Continued, values first:

IC50 [nM]	SMILES
300 to 3000	CC(C)NCCOc1ccc(-c2n[nH]c(Nc3ccc4[nH]ncc4c3)n2)cc1 [Example 230, N-[5-[4-[2-(isopropylamino)ethoxy]phenyl]-4H-1,2,4-triazol-3-yl]-1H-indazol-5-amine]
< 300	COc1cc(-c2nc(Nc3ccc4[nH]ncc4c3)n(C)n2)ccc1COC(=O)NC1CCNC1 (centres unmarked) [Example 231, [4-[5-(1H-indazol-5-ylamino)-1-methyl-1,2,4-triazol-3-yl]-2-methoxy-phenyl]methyl N-pyrrolidin-3-ylcarbamate]
300 to 3000	Cn1nc(-c2ccc3c(c2)OCCC3O)nc1Nc1ccc2[nH]ncc2c1Cl (centres unmarked) [Example 234, 7-[5-[(4-chloro-1H-indazol-5-yl)amino]-1-methyl-1,2,4-triazol-3-yl]chroman-4-ol]
< 300	COc1cc(-c2nc(Nc3ccc4[nH]ncc4c3)n(C)n2)ccc1OCC(=O)NC(C)C(F)(F)F (centres unmarked) [Example 235, 2-[4-[5-(1H-indazol-5-ylamino)-1-methyl-1,2,4-triazol-3-yl]-2-methoxy-phenoxy]-N-(2,2,2-trifluoro-1-methyl-ethyl)acetamide]
< 300	CC(C)C(=O)N1CCc2cc(-c3nc(Nc4ccc5[nH]ncc5c4Cl)n(C)n3)ccc2C1 [Example 236, 1-[6-[5-[(4-chloro-1H-indazol-5-yl)amino]-1-methyl-1,2,4-triazol-3-yl]-3,4-dihydro-1H-isoquinolin-2-yl]-2-methyl-propan-1-one]
300 to 3000	Cn1nc(-c2ccc3c(c2)CCNC3)nc1Nc1ccc2[nH]ncc2c1Cl [Example 237, 4-Chloro-N-[2-methyl-5-(1,2,3,4-tetrahydroisoquinolin-6-yl)-1,2,4-triazol-3-yl]-1H-indazol-5-amine]
< 300	Cn1nc(-c2ccc3c(c2)CCN(C(=O)C2CC2)C3)nc1Nc1ccc2[nH]ncc2c1Cl [Example 238]
< 300	Cn1nc(-c2ccc3c(c2)CCN(C(=O)CNCC(F)(F)F)C3)nc1Nc1ccc2[nH]ncc2c1Cl [Example 239]
< 300	CC(=O)N1CCc2cc(-c3nc(Nc4ccc5[nH]ncc5c4C4CC4)n(C)n3)ccc2C1C (centres unmarked) [Example 248, 1-[6-[5-[(4-cyclopropyl-1H-indazol-5-yl)amino]-1-methyl-1,2,4-triazol-3-yl]-1-methyl-3,4-dihydro-1H-isoquinolin-2-yl]ethanone]
3000 to 10000	CCN1CCc2cc(-c3nc(Nc4ccc5[nH]ncc5c4C4CC4)n(C)n3)ccc2C1C (centres unmarked) [Example 249, 4-cyclopropyl-N-[5-(2-ethyl-1-methyl-3,4-dihydro-1H-isoquinolin-6-yl)-2-methyl-1,2,4-triazol-3-yl]-1H-indazol-5-amine]
< 300	CC(C)NC(=O)COc1ccc(-c2nc(Nc3ccc4[nH]ncc4c3)n(C)n2)cc1Cl [Example 250, 2-[2-chloro-4-[5-(1H-indazol-5-ylamino)-1-methyl-1,2,4-triazol-3-yl]phenoxy]-N-isopropyl-acetamide]
< 300	CCNC(=O)c1ccc(-c2nc(Nc3ccc4[nH]ncc4c3C3CC3)n(C)n2)cc1 [Example 251, 4-[5-[(4-cyclopropyl-1H-indazol-5-yl)amino]-1-methyl-1,2,4-triazol-3-yl]-N-ethyl-benzamide]
< 300	CCc1c(Nc2nc(-c3ccc(C(=O)NC4CC4)c(OC)c3)nn2C)ccc2[nH]ncc12 [Example 252, N-cyclopropyl-4-[5-[(4-ethyl-1H-indazol-5-yl)amino]-1-methyl-1,2,4-triazol-3-yl]-2-methoxy-benzamide]
300 to 3000	CCNC(=O)c1ccc(-c2nc(Nc3ccc4[nH]ncc4c3Cl)n(C)n2)cc1Cl [Example 254]
< 300	Cn1nc(-c2ccc(C(=O)NC3(C)CC3)cc2)nc1Nc1ccc2[nH]ncc2c1Cl [Example 258]
< 300	Cn1nc(-c2ccc(C(=O)Nc3cccnc3)cc2)nc1Nc1ccc2[nH]ncc2c1Cl [Example 260]

IC50 [nM]	SMILES
< 300	COc1cc(-c2nc(Nc3ccc4[nH]ncc4c3Cl)n(C)n2)ccc1C(=O)NC1(C)CC1 [Example 264]
< 300	CCNC(=O)c1ccc(-c2nc(Nc3ccc4[nH]ncc4c3Cl)n(C)n2)c(Cl)c1 [Example 265]
< 300	Cn1nc(-c2ccc(C(=O)Nc3ccccn3)cc2)nc1Nc1ccc2[nH]ncc2c1Cl [Example 266]
< 300	Cn1nc(-c2cccc(C(=O)NCC(F)(F)F)c2)nc1Nc1ccc2[nH]ncc2c1Cl [Example 268]
< 300	COc1cc(-c2nc(Nc3cc(Cl)c4[nH]ncc4c3)n(C)n2)ccc1C(=O)NC(C)C [Example 271]
< 300	COc1cc(-c2nc(Nc3ccc4[nH]ncc4c3C3CC3)n(C)n2)ccc1C(=O)NC(C)C [Example 273]
300 to 3000	COc1cc(-c2nc(Nc3ccc4[nH]ncc4c3C3CC3)n(C)n2)ccc1C(=O)NC1CN(C)C1 [Example 275]
< 300	Cc1cc(-c2nc(Nc3ccc4[nH]ncc4c3C3CC3)n(C)n2)ccc1C(=O)NCC(F)(F)F [Example 276]
< 300	COc1cc(C(=O)NCC(F)(F)F)ccc1-c1nc(Nc2ccc3[nH]ncc3c2C2CC2)n(C)n1 [Example 278]
< 300	COc1cc(-c2nc(Nc3ccc4[nH]ncc4c3C3CC3)n(C)n2)ccc1C(=O)NCC(F)(F)F [Example 280]
< 300	CCC(C)NC(=O)c1ccc(-c2nc(Nc3ccc4[nH]ncc4c3C3CC3)n(C)n2)cc1 (centres unmarked) [Example 282]
< 300	Cn1nc(-c2ccc(C(=O)NCC3CC3)cc2)nc1Nc1ccc2[nH]ncc2c1C1CC1 [Example 283]
< 300	Cn1nc(-c2ccc(C(=O)NCCC(F)(F)F)cc2)nc1Nc1ccc2[nH]ncc2c1C1CC1 [Example 285]
< 300	Cn1nc(-c2ccc(C3=NCC(C)(C)O3)cc2)nc1Nc1ccc2[nH]ncc2c1C1CC1 [Example 287]
< 300	Cn1nc(-c2ccc(C(=O)NC3CC(O)C3)cc2)nc1Nc1ccc2[nH]ncc2c1C1CC1 (centres unmarked) [Example 288]
< 300	Cn1nc(-c2ccc(C(=O)NCC(C)(C)C)cc2)nc1Nc1ccc2[nH]ncc2c1C1CC1 [Example 289]
